Among the data in US8865706B2, “Heteroaryl-substituted hexahydropyrano[3,4-d][1,3]thiazin-2-amine compounds” (Pfizer Inc., priority 2013, dated 2014) are IC50 values, retold here.

As a reminder, the IC50 is the concentration at which inhibition is half-maximal. Higher therefore signals lower potency.

Assay [1] deals with BACE1 enzyme (Homo sapiens (Human), UniProt P56817). Put plainly: BACE1 Cell-Free Assay (fluorescence polarization, cleavage of synthetic APP substrate). The class given is biochemical. As to conditions: average of 2 determinations; values marked b: geometric mean of 3-9 determinations. From the text: This assay measures the inhibition of the beta-secretase enzyme as it cleaves a non-native peptide.
A synthetic APP substrate that can be cleaved by beta-secretase having N-terminal biotin and made fluorescent by the covalent attachment of Oregon Green at the Cys residue is used to assay beta-secretase activity in the presence or absence of the inhibitory compounds. […] The BACE1 enzyme is affinity purified material from conditioned media of CHO-K1 cells that have been transfected with a soluble BACE construct (BACE1deltaTM96His). Compounds are incubated in a ½ log dose response curve from a top concentration of 100 μM with BACE1 enzyme and the biotinylated fluorescent peptide in 384-well black plates (Thermo Scientific #4318). BACE1 is at a final concentration of 0.1 nM with a final concentration of peptide substrate of 150 nM in a reaction volume of 30 μL assay buffer [100 mM sodium acetate, pH 4.5 (brought to pH with acetic acid), and 0.001% Tween-20]. Plates are covered and incubated for 3 hours at 37° C. The reaction is stopped with the addition of 30 μL of 1.5 μM Streptavidin (Pierce, #21125). After a 10 minute incubation at room temperature, plates are read on a PerkinElmer EnVision for fluorescence polarization (Ex485 nm/Em530 nm). The activity of the beta-secretase enzyme is detected by changes in the fluorescence polarization that occur when the substrate is cleaved by the enzyme.
For orientation: In fluorescence polarisation assays a small probe gives low polarisation when free and higher when bound to something large.

Assay [2] relates to sAPPβ levels in H4 human neuroglioma cells over-expressing the wild-type human APP695. The assay can be described thus: Whole Cell Assay (In Vitro sAPPb Assay). In kind it is cell-based. As to conditions: 18 hours treatment, average of 2 determinations, values marked b: geometric mean of 3-9 determinations. The method, then: Whole Cell Assay (In Vitro sAPPb Assay):
H4 human neuroglioma cells over-expressing the wild-type human APP695 are treated for 18 hours with compound in a final concentration 1% DMSO. sAPPβ levels are measured using TMB-ELISA with capture APP N-terminal antibody (Affinity BioReagents, OMA1-03132), wild-type sAPPβ specific reporter p192 (Elan), and tertiary anti rabbit-HRP (GE Healthcare).

Chain of BACE1 enzyme (P56817 46-457): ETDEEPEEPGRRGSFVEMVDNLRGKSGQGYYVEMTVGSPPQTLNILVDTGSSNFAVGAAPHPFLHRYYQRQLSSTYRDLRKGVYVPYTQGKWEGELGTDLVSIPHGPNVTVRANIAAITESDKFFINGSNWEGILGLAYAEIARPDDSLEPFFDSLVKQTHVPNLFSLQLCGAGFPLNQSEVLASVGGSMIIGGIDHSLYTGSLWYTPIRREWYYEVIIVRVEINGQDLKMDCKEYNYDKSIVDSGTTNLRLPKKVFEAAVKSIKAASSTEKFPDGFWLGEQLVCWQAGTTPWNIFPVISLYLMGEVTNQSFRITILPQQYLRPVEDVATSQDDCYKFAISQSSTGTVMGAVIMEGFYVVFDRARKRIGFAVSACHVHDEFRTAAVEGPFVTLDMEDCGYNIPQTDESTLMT

For `Cc1cc([C@H]2C[C@H]3[C@@H](C)SC(N)=N[C@@]3(c3ccc(F)cc3F)CO2)on1` [Example 9, (4R,4aR,6R,8aS)-8a-(2,4-difluorophenyl)-4-methyl-6-(3-methyl-1,2-oxazol-5-yl)-4,4a,5,6,8,8a-hexahydropyrano[3,4-d][1,3]thiazin-2-amine], the figures for the half-inhibitory concentration (IC50) in assay [1] and in assay [2] (Homo sapiens) were 75.9 nM and 5.28 nM, respectively. `Cc1nc([C@H]2C[C@H]3CSC(N)=N[C@@]3(c3ccc(F)cc3F)CO2)no1` [Example 6, (4aR,6R,8aS)-8a-(2,4-Difluorophenyl)-6-(5-methyl-1,2,4-oxadiazol-3-yl)-4,4a,5,6,8,8a-hexahydropyrano[3,4-d][1,3]thiazin-2-amine]: the IC50 came to 341 nM in assay [1] and 41.5 nM in assay [2] (Homo sapiens). The corresponding values for `Cn1nc([C@H]2C[C@H]3CSC(N)=N[C@@]3(c3ccc(F)cc3F)CO2)cc1F` [Example 1, (4aR,6R,8aS)-8a-(2,4-difluorophenyl)-6-(5-fluoro-1-methyl-1H-pyrazol-3-yl)-4,4a,5,6,8,8a-hexahydropyrano[3,4-d][1,3]thiazin-2-amine] are 83.7 nM and 3.78 nM.

As for `NC1=N[C@@]2(c3ccc(F)cc3F)CO[C@@H](c3cn4cccnc4n3)C[C@H]2CS1` [Example 4, (4aR,6R,8aS)-8a-(2,4-Difluorophenyl)-6-(imidazo[1,2-a]pyrimidin-2-yl)-4,4a,5,6,8,8a-hexahydropyrano[3,4-d][1,3]thiazin-2-amine], the values for the IC50 in assay [1] and in assay [2] (Homo sapiens) were 1840 nM and 66.2 nM, respectively. The corresponding values for `Cc1cc([C@H]2C[C@H]3[C@@H](CF)SC(N)=N[C@@]3(c3ccc(F)cc3F)CO2)on1` [Example 13, (4S,4aR,6R,8aS)-8a-(2,4-Difluorophenyl)-4-(fluoromethyl)-6-(3-methyl-1,2-oxazol-5-yl)-4,4a,5,6,8,8a-hexahydropyrano[3,4-d][1,3]thiazin-2-amine] are 54.8 nM and 13.1 nM. The corresponding values for `Cc1cnc([C@@H]2C[C@@H]3CSC(N)=N[C@]3(c3ccc(F)cc3F)CO2)cn1` [Example C89, (4aS,6S,8aR)-8a-(2,4-difluorophenyl)-6-(5-methylpyrazin-2-yl)-4,4a,5,6,8,8a-hexahydropyrano[3,4-d][1,3]thiazin-2-amine] are 36200 nM and 1360 nM. Taken in the same sequence, the figures for `Cn1cc([C@H]2C[C@H]3CSC(N)=N[C@@]3(c3ccc(F)cc3F)CO2)nn1` [Example 18, (4aR,6R,8aS)-8a-(2,4-Difluorophenyl)-6-(1-methyl-1H-1,2,3-triazol-4-yl)-4,4a,5,6,8,8a-hexahydropyrano[3,4-d][1,3]thiazin-2-amine] were 877 nM and 25.2 nM. With `COc1cncc([C@H]2C[C@H]3CSC(N)=N[C@@]3(c3ccc(F)cc3F)CO2)c1` [Example 26, (4aR,6R,8aS)-8a-(2,4-Difluorophenyl)-6-(5-methoxypyridin-3-yl)-4,4a,5,6,8,8a-hexahydropyrano[3,4-d][1,3]thiazin-2-amine], the IC50 in assay [1] came to 1250 nM; in assay [2] (Homo sapiens), 62.6 nM. The corresponding values for `NC1=N[C@@]2(c3ccc(F)cc3F)CO[C@@H](c3nc4ccncc4o3)C[C@H]2CS1` [Example 23, (4aR,6R,8aS)-8a-(2,4-Difluorophenyl)-6-([1,3]oxazolo[5,4-c]pyridin-2-yl)-4,4a,5,6,8,8a-hexahydropyrano[3,4-d][1,3]thiazin-2-amine] are 5020 nM and 40.8 nM. The corresponding values for `NC1=N[C@@]2(c3ccc(F)cc3F)CO[C@@H](c3ccc(F)cn3)C[C@H]2CS1` [Example 2, (4aR,6R,8aS)-8a-(2,4-Difluorophenyl)-6-(5-fluoropyridin-2-yl)-4,4a,5,6,8,8a-hexahydropyrano[3,4-d][1,3]thiazin-2-amine] are 233 nM and 18.2 nM. The corresponding values for `Cc1cnc([C@H]2C[C@H]3CSC(N)=N[C@@]3(c3ccc(F)cc3F)CO2)cn1` [Example 20, (4aR,6R,8aS)-8a-(2,4-Difluorophenyl)-6-(5-methylpyrazin-2-yl)-4,4a,5,6,8,8a-hexahydropyrano[3,4-d][1,3]thiazin-2-amine] are 389 nM and 20.2 nM.

As for `CCOc1cc([C@H]2C[C@H]3CSC(N)=N[C@@]3(c3ccc(F)cc3F)CO2)nn1C` [Example 21, (4aR,6R,8aS)-8a-(2,4-Difluorophenyl)-6-(5-ethoxy-1-methyl-1H-pyrazol-3-yl)-4,4a,5,6,8,8a-hexahydropyrano[3,4-d][1,3]thiazin-2-amine], the IC50 worked out at 5400 nM in assay [1] and 123 nM in assay [2] (Homo sapiens). With `NC1=N[C@@]2(c3ccc(F)cc3F)CO[C@@H](c3nc(C(F)F)co3)C[C@H]2CS1` [Example 14, (4aR,6R,8aS)-6-[4-(Difluoromethyl)-1,3-oxazol-2-yl]-8a-(2,4-difluorophenyl)-4,4a,5,6,8,8a-hexahydropyrano[3,4-d][1,3]thiazin-2-amine], the IC50 in assay [1] came out at 231 nM; in assay [2] (Homo sapiens), 20.8 nM. `Cn1cc([C@H]2C[C@H]3[C@@H](CF)SC(N)=N[C@@]3(c3ccc(F)cc3F)CO2)cn1` [Example 22, (4S,4aR,6R,8aS)-8a-(2,4-Difluorophenyl)-4-(fluoromethyl)-6-(1-methyl-1H-pyrazol-4-yl)-4,4a,5,6,8,8a-hexahydropyrano[3,4-d][1,3]thiazin-2-amine]: half-maximal inhibition in assay [2] (Homo sapiens) (IC50) was put at 6.28 nM. Same read-out and setting: under `Cc1ccc([C@H]2C[C@H]3CSC(N)=N[C@@]3(c3ccc(F)cc3F)CO2)cn1` (relative stereo) [Example 7, rel-(4aR,6R,8aS)-8a-(2,4-Difluorophenyl)-6-(6-methylpyridin-3-yl)-4,4a,5,6,8,8a-hexahydropyrano[3,4-d][1,3]thiazin-2-amine] stands 6.7 nM; under `NC1=N[C@@]2(c3ccc(F)cc3F)CO[C@@H](c3cncc(F)c3)C[C@H]2CS1` [Example 29, (4aR,6R,8aS)-8a-(2,4-difluorophenyl)-6-(5-fluoropyridin-3-yl)-4,4a,5,6,8,8a-hexahydropyrano[3,4-d][1,3]thiazin-2-amine], 2.7 nM.

Take `NC1=N[C@@]2(c3ccc(F)cc3F)CO[C@@H](c3cncnc3)C[C@H]2CS1` [Example 24, (4aR,6R,8aS)-8a-(2,4-Difluorophenyl)-6-(pyrimidin-5-yl)-4,4a,5,6,8,8a-hexahydropyrano[3,4-d][1,3]thiazin-2-amine]: the figures for the IC50 in assay [1] and in assay [2] (Homo sapiens) were 1550 nM and 141 nM, respectively. The corresponding values for `Cc1ncc([C@H]2C[C@H]3CSC(N)=N[C@@]3(c3ccc(F)cc3F)CO2)cn1` [Example 17, (4aR,6R,8aS)-8a-(2,4-difluorophenyl)-6-(2-methylpyrimidin-5-yl)-4,4a,5,6,8,8a-hexahydropyrano[3,4-d][1,3]thiazin-2-amine] are 1400 nM and 60.3 nM. The corresponding values for `NC1=N[C@@]2(c3ccc(F)cc3F)CO[C@@H](c3ccc4nccn4c3)C[C@H]2CS1` [Example 28, (4aR,6R,8aS)-8a-(2,4-Difluorophenyl)-6-(imidazo[1,2-a]pyridin-6-yl)-4,4a,5,6,8,8a-hexahydropyrano[3,4-d][1,3]thiazin-2-amine] are 2150 nM and 15.5 nM. On to “(4aR,6R,8aS)-8a-(2,4-Difluorophenyl)-6-[1-(^2H3)methyl-1H-pyrazol-4-yl]-4,4a,5,6,8,8a-hexahydropyrano[3,4-d][1,3]thiazin-2-amine [Example 15]”, for which the IC50 in assay [2] turned out to be 4.37 nM.
